Assay results reported in patent US20240228512A1, “ACYCLIC OXAZEPINE COMPOUNDS COMPRISING A 6-AZA MOIETY AND USES THEREOF” (Genentech, Inc., priority 2022, published 2024).

Assays:
SW620 cells = assay: SW620 3D proliferation assay (CellTiter-Glo); assay type: cell-based; conditions: Homo sapiens, SW-620, 168 h, SW620, 3D culture, 7 days, read-out: SW620 CTG IC50
How it was run: (§1)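 Cells were seeded in ultra-low attachment plates (3000 or 1000 cells/well for 96- or 384-well format) in RPMI-1640, 10% FBS, 2 mM L-glutamine and cultured overnight at 37 °C/5% CO2 to form spheroids. Compounds were added by 333-fold dilution from DMSO for 7 days. Viability was read as CellTiter-Glo 3D ATP luminescence, with IC50 from a 4-parameter logistic fit.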

H1975 cells = assay: H1975 CTG proliferation assay; assay type: cell-based; conditions: Homo sapiens, NCI-H1975, H1975, CTG
HPAC cells = assay: HPAC 3D proliferation assay (CellTiter-Glo); assay type: cell-based; conditions: Homo sapiens, 168 h, 3D culture, 7 days, read-out: HPAC CTG IC50
How it was run: as §1

SW480 cells = assay: SW480 CTG proliferation assay; assay type: cell-based; conditions: Homo sapiens
SW620 PERK = SW620 PERK assay; assay type: cell-based; conditions: Homo sapiens, SW-620, SW620, PERK
[1] = target: recombinant human KRAS wild type (SOS1-mediated nucleotide exchange) (Homo sapiens (Human), UniProt P01116); assay: KRAS biochemical assay, BODIPY-GDP exchange TR-FRET (WT-GDP HTRF)
Protocol: [Worded in the source for another variant; this variant is reported under the same test.] KRAS Biochemical Assay—BODIPY-GDP Exchange TR-FRET.
Biochemical compound potencies were assessed by evaluating inhibition of SOS1-mediated nucleotide exchange in KRAS G12D. The SOS1-promoted exchange of fluorescently-labeled GDP (BOPIDY-GDP) was monitored by time-resolved fluorescence resonance energy transfer (TR-FRET). Compounds solubilized in DMSO were dispensed as concentration series into 384-well white assay plates. […] The reaction was initiated with the addition of 5 μL of 3 nM recombinant human SOS1 and 300 nM BODIPY-GDP in assay buffer. After a 60-minute incubation, the fluorescence was measured with excitation at 337 nm and emission at 490 and 520 nm. The TR-FRET ratio was determined as the fluorescence at 520 nm divided by the fluorescence at 490 nm multiplied by 10,000. […] The normalized TR-FRET results were plotted against compound concentration, and the data fit to a 4-parameter Hill equation to determine the IC50 values.

[2] = target: recombinant human mutant KRas G12V (SOS1-mediated nucleotide exchange) (Homo sapiens (Human), UniProt P01116, G12V); assay: KRAS biochemical assay, BODIPY-GDP exchange TR-FRET (G12V-GDP HTRF)
recombinant human mutant KRas G12V (SOS1-mediated nucleotide exchange), sequence (P01116-2 other isoform, or with tags, fused parts or gaps G12V): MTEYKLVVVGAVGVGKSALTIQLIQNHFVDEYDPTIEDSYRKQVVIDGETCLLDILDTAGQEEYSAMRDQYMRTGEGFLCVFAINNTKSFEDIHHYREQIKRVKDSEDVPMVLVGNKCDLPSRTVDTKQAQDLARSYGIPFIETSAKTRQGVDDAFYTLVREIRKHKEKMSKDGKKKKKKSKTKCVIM

recombinant human KRAS wild type (SOS1-mediated nucleotide exchange), sequence (P01116-2 other isoform, or with tags, fused parts or gaps): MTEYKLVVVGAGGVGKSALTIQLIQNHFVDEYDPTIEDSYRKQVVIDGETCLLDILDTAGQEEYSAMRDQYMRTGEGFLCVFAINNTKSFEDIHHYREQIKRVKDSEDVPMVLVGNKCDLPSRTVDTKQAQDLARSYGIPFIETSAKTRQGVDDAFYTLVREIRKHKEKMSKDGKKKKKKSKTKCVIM

SMILES	IC50 (SW620 cells) [nM]	IC50 (H1975 cells) [nM]	IC50 (SW480 cells) [nM]	IC50 (SW620 PERK) [nM]	IC50 [1] [nM]	IC50 [2] [nM]	IC50 (HPAC cells) [nM]
C#Cc1cccc2cc(O)cc(-c3nc4c5c(nc(OC[C@@H]6CC[C@H]7COCCN76)nc5c3F)N([C@H](C)c3cccnc3N)CCO4)c12 [Example 17, 4-(10-((R)-1-(2-aminopyridin-3-yl)ethyl)-4-fluoro-2-(((6S,8aS)-hexahydro-1H-pyrrolo[2,1-c][1,4]oxazin-6-yl)methoxy)-9,10-dihydro-8H-7-oxa-1,3,6,10-tetraazacyclohepta[de]naphthalen-5-yl)-5-ethynyinaphthalen-2-ol]	13.7	9.15	110	4.33			228
Cc1cc(N)c(F)c(-c2nc3c4c(nc(OC[C@@H]5CC[C@H]6COCCN65)nc4c2F)N([C@H](C)c2cccnc2N)CCO3)c1C(F)(F)F [Example 22, 3-((1R)-1-(5-(3-amino-2-fluoro-5-methyl-6-(trifluoromethyl)phenyl)-4-fluoro-2-(((6S,8aS)-hexahydro-1H-pyrrolo[2,1-c][1,4]oxazin-6-yl)methoxy)-8,9-dihydro-10H-7-oxa-1,3,6,10-tetraazacyclohepta[de]naphthalen-10-yl)ethyl)pyridin-2-amine]	6.45	48.7	24	6.32			67
CCc1cccc2cc(O)cc(-c3nc4c5c(nc(OC[C@@]67CCCN6C[C@H](F)C7)nc5c3F)N([C@H](C)c3cccnc3N)CCO4)c12 [Example 27, 4-(10-((R)-1-(2-aminopyridin-3-yl)ethyl)-4-fluoro-2-(((2R,7aS)-2-fluorotetrahydro-1H-pyrrolizin-7a(5H)-yl)methoxy)-9,10-dihydro-8H-7-oxa-1,3,6,10-tetraazacyclohepta[de]naphthalen-5-yl)-5-ethylnaphthalen-2-ol]	1.68	2.59	31				55.2
Cc1c(F)c(N)cc(-c2nc3c4c(nc(OC[C@@H]5CC[C@H]6COCCN65)nc4c2F)N([C@H](C)c2cccnc2N)CCO3)c1C(F)(F)F [Example 16, 3-((R)-1-(5-(5-amino-4-fluoro-3-methyl-2-(trifluoromethyl)phenyl)-4-fluoro-2-(((6S,8aS)-hexahydro-1H-pyrrolo[2,1-c][1,4]oxazin-6-yl)methoxy)-8,9-dihydro-10H-7-oxa-1,3,6,10-tetraazacyclohepta[de]naphthalen-10-yl)ethyl)pyridin-2-amine]	3.77	31.1	10	2.53			30.2
C#Cc1cccc2cc(O)cc(-c3nc4c5c(nc(OCC67CCN6CC(F)(F)C7)nc5c3F)N([C@H](C)c3cccnc3N)CCO4)c12 (stereo partly drawn) [Example 1, 4-(10-((R)-1-(2-aminopyridin-3-yl)ethyl)-2-((3,3-difluoro-1-azabicyclo[3.2.0]heptan-5-yl)methoxy)-4-fluoro-9,10-dihydro-8H-7-oxa-1,3,6,10-tetraazacyclohepta[de]naphthalen-5-yl)-5-ethynyinaphthalen-2-ol]	7	47.4	26	1.42			144
C[C@H](c1cccnc1N)N1CCOc2nc(-c3cc(O)cc4cccc(F)c34)c(F)c3nc(OC[C@@]45CCCN4C[C@H](F)C5)nc1c23 [Example 25, 4-(10-((R)-1-(2-aminopyridin-3-yl)ethyl)-4-fluoro-2-(((2R,7aS)-2-fluorotetrahydro-1H-pyrrolizin-7a(5H)-yl)methoxy)-9,10-dihydro-8H-7-oxa-1,3,6,10-tetraazacyclohepta[de]naphthalen-5-yl)-5-fluoronaphthalen-2-ol]	8.81	83.1	110	27.6			250
C#Cc1cccc2nc(N)cc(-c3nc4c5c(nc(OC[C@@]67CCCN6C[C@H](F)C7)nc5c3F)N([C@H](C)c3cccnc3N)CCO4)c12 [Example 30, 4-(10-((R)-1-(2-aminopyridin-3-yl)ethyl)-4-fluoro-2-(((2R,7aS)-2-fluorotetrahydro-1H-pyrrolizin-7a(5H)-yl)methoxy)-9,10-dihydro-8H-7-oxa-1,3,6,10-tetraazacyclohepta[de]naphthalen-5-yl)-5-ethynylquinolin-2-amine]	2.67	2.59		2.65	0.114	0.06	15.8

The next lines start with results.

IC50 (SW620 cells) [nM]	IC50 (H1975 cells) [nM]	IC50 (SW480 cells) [nM]	IC50 (SW620 PERK) [nM]	IC50 [1] [nM]	IC50 [2] [nM]	SMILES	IC50 (HPAC cells) [nM]
16.2	17.9		26.8	0.419	0.27	Cc1c(F)c(N)cc(-c2nc3c4c(nc(OC[C@@]56CCCN5C[C@]5(CC5(F)F)C6)nc4c2F)N([C@H](C)c2cccnc2N)CCO3)c1C(F)(F)F [Example 31, 3-((R)-1-(5-(5-amino-4-fluoro-3-methyl-2-(trifluoromethyl)phenyl)-2-(((1R,7a'S)-2,2-difluorodihydro-1′H,3′H-spiro[cyclopropane-1,2′-pyrrolizin]-7a′(5′H)-yl)methoxy)-4-fluoro-8,9-dihydro-10H-7-oxa-1,3,6,10-tetraazacyclohepta[de]naphthalen-10-yl)ethyl)pyridin-2-amine]	156
193	854		52.6	4.67	0.44	Cc1nc(N)cc(-c2nc3c4c(nc(OC[C@@H]5CCCN5C)nc4c2F)N([C@H](C)c2cccnc2N)CCO3)c1C(F)(F)F [Example 627, 4-(10-((R)-1-(2-aminopyridin-3-yl)ethyl)-4-fluoro-2-(((S)-1-methylpyrrolidin-2-yl)methoxy)-9,10-dihydro-8H-7-oxa-1,3,6,10-tetraazacyclohepta[de]naphthalen-5-yl)-6-methyl-5-(trifluoromethyl)pyridin-2-amine]	1360
15.5	83.4		6.08	0.379	0.089	Cc1c(F)c(N)nc(-c2nc3c4c(nc(OC[C@@]56CCCN5C[C@]5(CC5(F)F)C6)nc4c2F)N([C@H](C)c2nccnc2N)CCO3)c1C(F)(F)F [Example 632]	83.4
90.7	35.5		17.8	0.69	0.27	Cc1cc(N)nc(-c2nc3c4c(nc(OC[C@@]56CCCN5C[C@H](F)C6)nc4c2F)N(C(C)c2scnc2N)CCO3)c1C(F)(F)F (stereo partly drawn) [Example 607, 5-(1-(5-(6-amino-4-methyl-3-(trifluoromethyl)pyridin-2-yl)-4-fluoro-2-(((2R,7aS)-2-fluorotetrahydro-1H-pyrrolizin-7a(5H)-yl)methoxy)-8,9-dihydro-10H-7-oxa-1,3,6,10-tetraazacyclohepta[de]naphthalen-10-yl)ethyl)thiazol-4-amine]	302
5.1	766		3.2	0.572	0.19	C[C@H](c1cccnc1N)N1CCOc2nc(-c3c(C(F)(F)F)ccc(N)c3Cl)c(F)c3nc(OC[C@@]45CCCN4C[C@H](F)C5)nc1c23 (atropisomer, axis not shown; (aS)) [Example 622a, 3-((R)-1-((R)-5-(3-amino-2-chloro-6-(trifluoromethyl)phenyl)-4-fluoro-2-(((2R,7aS)-2-fluorotetrahydro-1H-pyrrolizin-7a(5H)-yl)methoxy)-8,9-dihydro-10H-7-oxa-1,3,6,10-tetraazacyclohepta[de]naphthalen-10-yl)ethyl)pyridin-2-amine]	39.6
246	243		45.1	3.38	0.52	C[C@H](c1cccnc1N)N1CCOc2nc(-c3cc(N)ncc3C(F)(F)F)c(F)c3nc(OC[C@@]45CCCN4C[C@H](F)C5)nc1c23 [Example 608, 4-(10-((R)-1-(2-aminopyridin-3-yl)ethyl)-4-fluoro-2-(((2R,7aS)-2-fluorotetrahydro-1H-pyrrolizin-7a(5H)-yl)methoxy)-9,10-dihydro-8H-7-oxa-1,3,6,10-tetraazacyclohepta[de]naphthalen-5-yl)-5-(trifluoromethyl)pyridin-2-amine]	917
74.2	426		105	12.3	4.8	Cc1c(F)c(N)c(F)c(-c2nc3c4c(nc(OC[C@@]56CCCN5C[C@H](F)C6)nc4c2Cl)N([C@H](C)c2cccnc2N)CCO3)c1C(F)(F)F (single isomer, unassigned) [Example 629b]	682
